Counter-ions that a name gives are not always drawn. Like-named read-outs stand apart in the source and are kept apart here. One block for each compound: values may come before it.
System: cultured human mast cells (CHMC), IgE-induced degranulation
Experiment: CHMC low cell density IgE activation: tryptase assay
Format: cell-based
How it was run: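 Tryptase release read fluorogenically (30 min, room temperature) from supernatants of anti-IgE-challenged cultured human mucosal mast cells derived from umbilical cord CD34+ cells, at low density of 1000–1500 cells/well.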

[1] = CHMC low cell density, 3pt, read-out: LD Tryptase, CHMC, IgE, 3pt
[2] = CHMC low cell density, 8pt, read-out: LD Tryptase, CHMC, IgE, 8pt
[3] = low cell density CHMC, 8pt, read-out: LD Tryptase, CHMC, IgE, 8pt
[4] = low cell density CHMC, 8-point, read-out: LD Tryptase, CHMC, IgE, 8pt
[5] = Homo sapiens, Mast cell, low cell density CHMC, 8pt, read-out: LD Tryptase, CHMC, IgE, 8pt
[6] = low cell density CHMC, 3pt, read-out: LD Tryptase, CHMC, IgE, 3pt
[7] = low cell density CHMC, 3-point, read-out: LD Tryptase, CHMC, IgE, 3pt

IC50 [1]: < 10 µM
IC50 [2]: < 10 µM
Compound: CCOCCCn1ncc2cc(Nc3ncc(F)c(Nc4ccc5c(n4)NC(=O)C(C)(C)O5)n3)ccc21 [Compound 875, N4-(2,2-Dimethyl-3-oxo-4H-5-pyrid[1,4]oxazin-6-yl)-N2-[1-(3-ethoxypropyl)indazol-5-yl]-5-fluoro-2,4-pyrimidinediamine]

IC50 [2]: < 10 µM
Compound: Cn1c(CN2CCOCC2)nc2cc(Nc3ncc(F)c(Nc4ccc5c(c4)NC(=O)C(C)(C)O5)n3)ccc21 [Compound 956, N4-(2,2-Dimethyl-3-oxo-4H-benz[1,4]oxazin-6-yl)-5-fluoro-N2-[1-methyl-2-(4-morpholinomethyl)benzimidazol-5-yl]-2,4-pyrimidinediamine]

IC50 [3]: < 10 µM
Compound: CC1(C)COc2ccc(Nc3nc(Nc4cc5c6c(c4)c(CCO)cn6CCO5)ncc3F)cc2N1 [Compound 206, N4-(3,4-Dihydro-3,3-dimethyl-2H,4H-benz[1,4]oxazin-6-yl)-5-fluoro-N2-[6-(2-hydroxyethyl)-2,3-dihydropyrrolo[1,2,3-d,e]benzoxazin-8-yl]-2,4-pyrimidinediamine]

IC50 [2]: < 10 µM
Compound: Cc1nn(C)c2cc(Nc3ncc(F)c(Nc4ccc5c(n4)NC(=O)C(C)(C)O5)n3)ccc12 [Compound 812, N2-(1,3-Dimethylindazol-6-yl)-N4-(2,2-dimethyl-3-oxo-4H-5-pyrid[1,4]oxazin-6-yl)-5-fluoro-2,4-pyrimidinediamine]

IC50 [4]: < 10 µM
Compound: CNC(=O)COc1cccc(Nc2ncc(F)c(Nc3ccc4c(n3)NC(=O)C(C)(C)O4)n2)c1C [Compound 1079, N4-(2,2-Dimethyl-3-oxo-4H-5-pyrid [1,4]oxazin-6-yl)-5-fluoro-N2-[2-methyl-3-(N-methylamino)carbonylmethyleneoxyphenyl]-2,4-pyrimidinediamine]

IC50 [2]: < 10 µM
Compound: N4-(2,2-Dimethyl-3-oxo-4H-benz[1,4]oxazin-6-yl)-5-fluoro-[1-(2-hydroxymethyl)-2-trifluoromethylbenzimidazol-5-yl]-2,4-pyrimidinediamine [Compound 922]

IC50 [1]: < 10 µM
IC50 [2]: < 10 µM
Compound: CNC(=O)COc1c(C)cc(Nc2ncc(F)c(Nc3ccc4c(c3)NC(=O)C(C)(C)O4)n2)cc1C [Compound 574, N2-[3,5-dimethyl-4-(N-methylamino)carbonylmethyleneoxyphenyl]-N4-(2,2-dimethyl-3-oxo-4H-benz[1,4]oxazin-6-yl)-5-fluoro-2,4-pyrimidinediamine]

IC50 [1]: < 10 µM
IC50 [2]: < 10 µM
Compound: CC1(C)Oc2ccc(Nc3nc(Nc4cc(Cl)c(O)c(Cl)c4)ncc3F)nc2NC1=O [Compound 686, N4-(2,2-Dimethyl-3-oxo-4H-5-pyrid[1,4]oxazin-6-yl)-N2-(3,5-dichloro-4-hydroxyphenyl)-5-fluoro-2,4-pyrimidinediamine]

IC50 [2]: < 10 µM
Compound: CC1(C)Oc2ccc(Nc3nc(Nc4ccc5c(cnn5CCCN5C(=O)c6ccccc6C5=O)c4)ncc3F)cc2NC1=O [Compound 817, N4-(2,2-Dimethyl-3-oxo-4H-benz[1,4]oxazin-6-yl)-5-fluoro-N2-[1-[3-(N-phthalimidopropyl)]indazol-5-yl]-2,4-pyrimidinediamine]

IC50 (Homo sapiens, Mast cell, low cell density CHMC, 3pt, read-out: LD Tryptase, CHMC, IgE, 3pt): < 10 µM
IC50 [5]: < 10 µM
Compound: C[C@@H]1Oc2ccc(Nc3nc(NC4=CC=CC(=CN)C4)ncc3F)cc2NC1=O [Compound 1279]

Compound: CNC(=O)COc1cccc(Nc2ncc(F)c(Nc3ccc4c(n3)NC(=O)C(C)(C)O4)n2)c1 [Compound 986, N4-(2,2-Dimethyl-3-oxo-4H-5-pyrid[1,4]oxazin-6-yl)-5-fluoro-N2-[3-(N-methylamino)carbonylmethyleneoxyphenyl]-2,4-pyrimidinediamine Hydrogen Chloride Salt]
IC50 [1]: < 10 µM
IC50 [2]: < 10 µM

IC50 [3]: < 10 µM
Compound: CNC(=O)COc1cccc(Nc2ncc(F)c(Nc3ccc4c(c3)NC(=O)C(C)S4)n2)c1 (centres unmarked) [Compound 279, 5-Fluoro-N2-[3-(N-methylamino)carbonylmethyleneoxyphenyl]-N4-(2-methyl-3-oxo-2H,4H-benzo[1,4]thiazin-6-yl)-2,4-pyrimidinediamine]

IC50 [4]: < 10 µM
Compound: COc1c(C)cc(Nc2ncc(F)c(Nc3ccc4c(n3)NC(=O)CO4)n2)cc1C [Compound 1059, N2-(3,5-Dimethyl-4-methoxyphenyl)-5-fluoro-N4-(3-oxo-2H,4H-5-pyrid[1,4]oxazin-6-yl)-2,4-pyrimidinediamine]

IC50 [6]: < 10 µM
IC50 [3]: < 10 µM
Compound: CN1CCN(c2ccc(Nc3ncc(F)c(Nc4ccc5c(n4)NCCO5)n3)cc2Cl)CC1 [Compound 1197, N2-[3-Chloro-4-(4-methylpiperazino)phenyl]-N4-(3,4-dihydro-2H,4H-5-pyrid[1,4]oxazin-6-yl)-5-fluoro-2,4-pyrimidinediamine]

IC50 [2]: < 10 µM
Compound: Cc1n[nH]c2cc(Nc3ncc(F)c(Nc4ccc5c(n4)NC(=O)C(C)(C)O5)n3)ccc12 [Compound 813, N4-(2,2-Dimethyl-3-oxo-4H-5-pyrid[1,4]oxazin-6-yl)-5-fluoro-N2-(3-methyl-1H-indazol-6-yl)-2,4-pyrimidinediamine]

IC50 [7]: < 10 µM
IC50 [4]: < 10 µM
Compound: CC(=O)N1CCN(c2ccc(Nc3ncc(F)c(Nc4ccc5c(n4)NCCO5)n3)cc2)CC1 [Compound 1134, N2-[4-(4-Acetylpiperazino)phenyl]-N4-(3,4-dihydro-2H,4H-5-pyrid[1,4]oxazin-6-yl)-5-fluoro-2,4-pyrimidinediamine]

IC50 [5]: < 10 µM
Compound: OC=C1C=C(Nc2ncc(F)c(Nc3ccc4c(c3)OCCO4)n2)CC(=CO)C1 [Compound 342]

IC50 [4]: < 10 µM
Compound: CC(=O)N1CCN(c2cccc(Nc3ncc(F)c(Nc4ccc5c(n4)NC(=O)CO5)n3)c2)CC1 [Compound 1071, N2-[3-(4-Acetylpiperazino)phenyl]-5-fluoro-N4-(3-oxo-2H,4H-5-pyrid[1,4]oxazin-6-yl)-2,4-pyrimidinediamine]

IC50 [4]: < 10 µM
Compound: Cc1c(O)cccc1Nc1ncc(F)c(Nc2ccc3c(n2)NC(=O)CO3)n1 [Compound 1063, 5-Fluoro-N2-(3-hydroxy-2-methylphenyl)-N4-(3-oxo-2H,4H-5-pyrid[1,4]oxazin-6-yl)-2,4-pyrimidinediamine]

IC50 [1]: < 10 µM
IC50 [2]: < 10 µM
Compound: CC(=O)NCCCn1c(C)nc2cc(Nc3ncc(F)c(Nc4ccc5c(n4)NC(=O)C(C)(C)O5)n3)ccc21 [Compound 953, N2-[1-[3-(N-Acetylamino)propyl]-2-methylbenzimidazol-5-yl]-N4-(2,2-Dimethyl-3-oxo-4H-5-pyrido[1,4]oxazin-6-yl)-5-fluoro-2,4-pyrimidinediamine]

IC50 [7]: < 10 µM
Compound: COC(=O)COc1cccc(Nc2ncc(F)c(Nc3ccc4c(c3)NC(=O)C(C)(C)O4)n2)c1C [Compound 1066, N4-(2,2-Dimethyl-3-oxo-4H-benz[1,4]oxazin-6-yl)-5-fluoro-N2-[3-methoxycarbonylmethyleneoxy-2-methylphenyl]-2,4-pyrimidinediamine]

IC50 [1]: < 10 µM
Compound: Cc1cc(Nc2ncc(F)c(Nc3ccc4c(n3)NC(=O)C(C)(C)O4)n2)cc(C)c1Cl [Compound 684, N2-(4-Chloro-3,5-dimethylphenyl)-N4-(2,2-dimethyl-3-oxo-4H-5-pyrid[1,4]oxazin-6-yl)-5-fluoro-2,4-pyrimidinediamine p-Toluenesulfonic Acid Salt]

IC50 [6]: < 10 µM
IC50 [3]: < 10 µM
Compound: CNC(=O)COc1cccc(Nc2ncc(F)c(Nc3ccc4c(c3)NC(=O)C(C)(C)S4)n2)c1 [Compound 294, N4-(2,2-Dimethyl-3-oxo-4H-benzo[1,4]thiazin-6-yl)-5-fluoro-N2-[3-(N-methylamino)carbonylmethyleneoxyphenyl]-2,4-pyrimidinediamine]

IC50 [1]: > 10 µM
Compound: COC(=O)CN1C(=O)C(C)(C)Oc2ccc(Nc3ccnc(Nc4ccc5c(n4)N(CC(=O)OC)C(=O)C(C)(C)O5)n3)nc21 [Compound 688, N2,N4-Bis(2,2-dimethyl-4-carbomethoxymethyl-3-oxo-5-pyrid[1,4]oxazin-6-yl)-2,4-pyrimidinediamine]

Compound: COc1cc(Nc2ncc(F)c(Nc3ccc4c(n3)NC(=O)C(C)(C)O4)n2)cc(OC)c1OC.O=S(=O)(O)c1cccnc1 [Compound 678, N4-(2,2-Dimethyl-3-oxo-4H-5-pyrid[1,4]oxazin-6-yl)-5-fluoro-N2-(3,4,5-trimethoxyphenyl)-2,4-pyrimidinediamine 0.5 Pyridine-3-sulfonic Acid Salt]
IC50 [1]: < 10 µM
IC50 [2]: < 10 µM

IC50 [3]: < 10 µM
Compound: COc1ccc(Nc2ncc(F)c(Nc3ccc4c(c3)NC(=O)C(C)(C)S4)n2)cc1Cl [Compound 289]

IC50 [6]: < 10 µM
IC50 [3]: < 10 µM
Compound: N4-(2,2-Dimethyl-3-oxo-4H-N4-oxo-5-pyrido[1,4]oxazin-6-yl)-5-fluoro-N2-(3,4,5-trimethoxyphenyl)-2,4-pyrimidinediamine [Compound 1340]

IC50 [3]: < 10 µM
Compound: COc1ccc(Nc2ncc(F)c(Nc3ccc4c(c3)NC(=O)C(C)(C)S4(=O)=O)n2)cc1Cl [Compound 276]

IC50 [3]: < 10 µM
Compound: CNC(=O)COc1cccc(Nc2ncc(F)c(Nc3ccc4c(c3)NC(=O)C(C)(C)S4(=O)=O)n2)c1 [Compound 275, N4-(2,2-Dimethyl-1,1,3-trioxo-4H-benzo[1,4]thiazin-6-yl)-5-fluoro-N2-[3-(N-methylamino)carbonylmethyleneoxyphenyl]-2,4-pyrimidinediamine]

IC50 [7]: < 10 µM
IC50 [4]: < 10 µM
Compound: COc1ccc(Nc2ncc(F)c(Nc3ccc4c(n3)NC(=O)[C@H](C)O4)n2)cc1Cl [Compound 1081, (S)—N2-(3-Chloro-4-methoxyphenyl)-5-fluoro-N4-(2-methyl-3-oxo-2H,4H-5-pyrid[1,4]oxazin-6-yl)-2,4-pyrimidinediamine]

IC50 [6]: < 10 µM
IC50 [3]: < 10 µM
Compound: COc1ccc(Nc2ncc(F)c(Nc3ccc4c(c3)NC(=O)C(C)(C)S4)n2)cc1F [Compound 299]
